Measured values as given in article PMC11345841, “Exploring 2-Sulfonylpyrimidine Warheads as Acrylamide Surrogates for Targeted Covalent Inhibition: A BTK Story” (Journal of Medicinal Chemistry, 2024).
pIC50: −log10 of the molar value. Read-outs that look alike come from different tables or passages of the source.

Columns and labels:
EPHB3 = target: T1, EPHB3 (Homo sapiens, UniProt P54753); assay: KINOMEscan ScanTK; assay type: binding
T1 construct: purchased Eurofins DiscoverX KINOMEscan (scanTK)
T1 sequence (P54753 34-998): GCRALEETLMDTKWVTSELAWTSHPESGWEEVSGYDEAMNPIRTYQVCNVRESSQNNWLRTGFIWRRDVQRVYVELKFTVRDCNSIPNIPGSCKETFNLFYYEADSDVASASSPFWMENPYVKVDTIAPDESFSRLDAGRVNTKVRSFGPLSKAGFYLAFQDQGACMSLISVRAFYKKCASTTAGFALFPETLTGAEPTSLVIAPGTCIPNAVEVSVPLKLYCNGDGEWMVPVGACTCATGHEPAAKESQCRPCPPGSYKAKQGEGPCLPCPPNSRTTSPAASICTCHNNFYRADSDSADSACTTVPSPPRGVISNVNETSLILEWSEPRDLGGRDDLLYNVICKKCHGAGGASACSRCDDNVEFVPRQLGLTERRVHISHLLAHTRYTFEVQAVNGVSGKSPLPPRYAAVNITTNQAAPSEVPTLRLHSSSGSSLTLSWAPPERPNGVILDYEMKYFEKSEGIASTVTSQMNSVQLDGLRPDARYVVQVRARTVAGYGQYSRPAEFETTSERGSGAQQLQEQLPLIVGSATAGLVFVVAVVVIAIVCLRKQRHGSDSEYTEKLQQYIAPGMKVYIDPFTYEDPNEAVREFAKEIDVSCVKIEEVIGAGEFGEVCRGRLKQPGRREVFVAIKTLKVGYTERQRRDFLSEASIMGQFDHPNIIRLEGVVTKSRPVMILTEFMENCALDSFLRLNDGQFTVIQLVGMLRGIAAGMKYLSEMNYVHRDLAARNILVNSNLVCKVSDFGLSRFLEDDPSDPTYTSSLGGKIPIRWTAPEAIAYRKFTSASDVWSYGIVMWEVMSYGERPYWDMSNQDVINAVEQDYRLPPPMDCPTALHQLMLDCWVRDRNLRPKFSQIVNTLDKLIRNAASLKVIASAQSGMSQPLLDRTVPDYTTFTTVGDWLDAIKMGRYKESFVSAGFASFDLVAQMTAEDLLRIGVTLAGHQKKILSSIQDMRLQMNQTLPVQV

FLT3(D835Y) = target: T2, FLT3(D835Y) (Homo sapiens, UniProt P36888, D835Y); assay: KINOMEscan ScanTK; assay type: binding
T2 construct: purchased Eurofins DiscoverX KINOMEscan (scanTK)
T2 sequence (P36888 27-993 D835Y): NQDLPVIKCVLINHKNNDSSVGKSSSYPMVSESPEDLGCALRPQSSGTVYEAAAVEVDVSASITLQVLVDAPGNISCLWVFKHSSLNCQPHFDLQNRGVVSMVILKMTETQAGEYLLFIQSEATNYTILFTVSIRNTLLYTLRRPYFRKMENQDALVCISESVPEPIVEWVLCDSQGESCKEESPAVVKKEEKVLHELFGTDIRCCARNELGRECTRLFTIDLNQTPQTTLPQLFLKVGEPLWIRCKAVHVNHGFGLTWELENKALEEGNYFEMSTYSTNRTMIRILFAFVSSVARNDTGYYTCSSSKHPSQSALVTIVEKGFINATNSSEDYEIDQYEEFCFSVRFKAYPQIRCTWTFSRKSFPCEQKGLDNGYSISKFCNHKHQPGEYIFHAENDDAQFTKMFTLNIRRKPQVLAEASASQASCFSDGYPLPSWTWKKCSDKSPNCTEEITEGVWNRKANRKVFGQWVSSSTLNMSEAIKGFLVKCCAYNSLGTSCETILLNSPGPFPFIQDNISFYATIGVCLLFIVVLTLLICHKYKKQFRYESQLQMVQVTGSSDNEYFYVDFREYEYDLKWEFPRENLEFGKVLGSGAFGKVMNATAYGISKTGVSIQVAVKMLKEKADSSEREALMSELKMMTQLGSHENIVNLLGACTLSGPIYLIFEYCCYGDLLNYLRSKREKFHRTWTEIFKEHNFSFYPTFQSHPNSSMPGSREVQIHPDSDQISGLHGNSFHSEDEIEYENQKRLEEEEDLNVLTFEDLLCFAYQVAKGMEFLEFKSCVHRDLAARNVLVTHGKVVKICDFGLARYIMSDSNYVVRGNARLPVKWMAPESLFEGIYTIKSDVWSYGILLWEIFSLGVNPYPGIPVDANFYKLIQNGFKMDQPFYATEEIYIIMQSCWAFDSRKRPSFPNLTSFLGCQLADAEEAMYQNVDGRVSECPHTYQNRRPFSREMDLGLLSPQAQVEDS

EGFR(L861Q) = target: T3, EGFR(L861Q) (Homo sapiens, UniProt P00533, L861Q); assay: KINOMEscan ScanTK; assay type: binding
T3 construct: purchased Eurofins DiscoverX KINOMEscan (scanTK)

[1] = target: T4, ABL1(T315I)-nonphosphorylated (Homo sapiens, UniProt P00519, T315I); assay: KINOMEscan ScanTK; assay type: binding
T4 construct: purchased Eurofins DiscoverX KINOMEscan (scanTK)

ITK, full length = target: T5, ITK, full length (Homo sapiens, UniProt Q08881); assay: PhosphoSens enzymatic IC50 (AssayQuant)
T5 sequence (Q08881 1-620): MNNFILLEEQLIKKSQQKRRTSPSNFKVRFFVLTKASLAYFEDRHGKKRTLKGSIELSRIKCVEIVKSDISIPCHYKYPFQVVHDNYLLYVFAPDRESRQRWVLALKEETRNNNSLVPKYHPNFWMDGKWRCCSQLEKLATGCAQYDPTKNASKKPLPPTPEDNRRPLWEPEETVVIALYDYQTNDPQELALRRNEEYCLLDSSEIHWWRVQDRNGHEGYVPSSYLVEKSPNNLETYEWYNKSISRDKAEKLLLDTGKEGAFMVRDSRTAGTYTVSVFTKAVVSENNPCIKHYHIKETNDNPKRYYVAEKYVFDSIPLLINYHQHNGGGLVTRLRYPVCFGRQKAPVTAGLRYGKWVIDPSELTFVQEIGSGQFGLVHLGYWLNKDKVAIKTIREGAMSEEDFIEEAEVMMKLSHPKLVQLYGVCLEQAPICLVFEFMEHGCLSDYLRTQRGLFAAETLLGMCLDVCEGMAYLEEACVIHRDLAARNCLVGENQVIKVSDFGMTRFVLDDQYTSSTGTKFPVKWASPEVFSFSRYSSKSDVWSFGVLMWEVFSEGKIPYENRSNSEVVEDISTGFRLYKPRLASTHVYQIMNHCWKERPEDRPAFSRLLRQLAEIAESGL

PYK2 = target: T6, PYK2 (Homo sapiens, UniProt Q14289); assay: KINOMEscan ScanTK; assay type: binding
T6 construct: purchased Eurofins DiscoverX KINOMEscan (scanTK)

FGFR2 = target: T7, FGFR2 (Homo sapiens, UniProt P21802); assay: KINOMEscan ScanTK; assay type: binding
T7 construct: purchased Eurofins DiscoverX KINOMEscan (scanTK)
T7 sequence (P21802 22-821): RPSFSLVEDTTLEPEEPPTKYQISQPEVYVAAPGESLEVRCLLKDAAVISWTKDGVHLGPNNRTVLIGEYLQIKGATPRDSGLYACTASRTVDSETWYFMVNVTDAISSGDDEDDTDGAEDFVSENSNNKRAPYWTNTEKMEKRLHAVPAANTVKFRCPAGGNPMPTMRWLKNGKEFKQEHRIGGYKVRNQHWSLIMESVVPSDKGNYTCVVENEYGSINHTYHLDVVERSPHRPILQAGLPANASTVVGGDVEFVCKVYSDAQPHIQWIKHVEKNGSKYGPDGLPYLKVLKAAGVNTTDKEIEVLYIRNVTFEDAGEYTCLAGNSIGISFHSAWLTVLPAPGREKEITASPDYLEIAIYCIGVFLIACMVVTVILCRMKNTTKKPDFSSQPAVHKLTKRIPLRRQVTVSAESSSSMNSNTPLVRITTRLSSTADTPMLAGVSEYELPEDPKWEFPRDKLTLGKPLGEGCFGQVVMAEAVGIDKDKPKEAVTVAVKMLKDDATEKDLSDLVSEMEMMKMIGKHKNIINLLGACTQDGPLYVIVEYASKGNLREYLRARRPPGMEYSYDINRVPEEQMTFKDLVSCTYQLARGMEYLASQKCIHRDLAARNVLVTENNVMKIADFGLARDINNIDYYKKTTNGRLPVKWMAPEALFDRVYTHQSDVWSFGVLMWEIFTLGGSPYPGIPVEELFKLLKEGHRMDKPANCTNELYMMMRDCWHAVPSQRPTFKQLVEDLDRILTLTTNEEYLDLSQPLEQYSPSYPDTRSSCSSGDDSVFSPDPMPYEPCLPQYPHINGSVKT

T3 sequence (P00533 25-1210 L861Q): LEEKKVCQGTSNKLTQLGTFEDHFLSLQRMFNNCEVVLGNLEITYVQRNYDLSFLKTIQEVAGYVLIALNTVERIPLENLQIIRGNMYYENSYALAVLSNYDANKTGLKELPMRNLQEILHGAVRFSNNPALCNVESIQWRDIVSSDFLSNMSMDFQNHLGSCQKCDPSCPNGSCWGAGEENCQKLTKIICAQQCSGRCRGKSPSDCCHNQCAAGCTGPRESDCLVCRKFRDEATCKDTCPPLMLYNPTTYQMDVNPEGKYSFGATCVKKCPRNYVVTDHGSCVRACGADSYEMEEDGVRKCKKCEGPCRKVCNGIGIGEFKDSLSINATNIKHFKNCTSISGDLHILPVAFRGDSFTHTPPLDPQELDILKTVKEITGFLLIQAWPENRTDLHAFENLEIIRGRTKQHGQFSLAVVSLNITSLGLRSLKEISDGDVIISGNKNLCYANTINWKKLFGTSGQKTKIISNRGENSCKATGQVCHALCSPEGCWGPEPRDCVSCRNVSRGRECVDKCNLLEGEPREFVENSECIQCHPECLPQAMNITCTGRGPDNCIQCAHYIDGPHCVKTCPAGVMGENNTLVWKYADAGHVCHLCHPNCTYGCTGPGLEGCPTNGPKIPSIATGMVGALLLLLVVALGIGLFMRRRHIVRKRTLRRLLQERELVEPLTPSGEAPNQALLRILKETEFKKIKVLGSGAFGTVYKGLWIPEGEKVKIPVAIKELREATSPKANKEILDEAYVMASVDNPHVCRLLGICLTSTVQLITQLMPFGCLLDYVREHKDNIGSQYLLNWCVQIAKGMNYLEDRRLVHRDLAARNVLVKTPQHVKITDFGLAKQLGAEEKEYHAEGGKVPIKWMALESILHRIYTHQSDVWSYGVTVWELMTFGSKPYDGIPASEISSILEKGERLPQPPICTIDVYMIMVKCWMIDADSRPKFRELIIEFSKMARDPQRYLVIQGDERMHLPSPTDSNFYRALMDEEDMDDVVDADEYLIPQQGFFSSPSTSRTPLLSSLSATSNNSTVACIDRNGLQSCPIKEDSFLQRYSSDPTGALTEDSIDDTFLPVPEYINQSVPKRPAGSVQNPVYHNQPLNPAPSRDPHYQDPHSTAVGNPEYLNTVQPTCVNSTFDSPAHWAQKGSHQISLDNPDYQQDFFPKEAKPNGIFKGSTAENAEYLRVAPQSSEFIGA
T6 sequence (Q14289 whole entry): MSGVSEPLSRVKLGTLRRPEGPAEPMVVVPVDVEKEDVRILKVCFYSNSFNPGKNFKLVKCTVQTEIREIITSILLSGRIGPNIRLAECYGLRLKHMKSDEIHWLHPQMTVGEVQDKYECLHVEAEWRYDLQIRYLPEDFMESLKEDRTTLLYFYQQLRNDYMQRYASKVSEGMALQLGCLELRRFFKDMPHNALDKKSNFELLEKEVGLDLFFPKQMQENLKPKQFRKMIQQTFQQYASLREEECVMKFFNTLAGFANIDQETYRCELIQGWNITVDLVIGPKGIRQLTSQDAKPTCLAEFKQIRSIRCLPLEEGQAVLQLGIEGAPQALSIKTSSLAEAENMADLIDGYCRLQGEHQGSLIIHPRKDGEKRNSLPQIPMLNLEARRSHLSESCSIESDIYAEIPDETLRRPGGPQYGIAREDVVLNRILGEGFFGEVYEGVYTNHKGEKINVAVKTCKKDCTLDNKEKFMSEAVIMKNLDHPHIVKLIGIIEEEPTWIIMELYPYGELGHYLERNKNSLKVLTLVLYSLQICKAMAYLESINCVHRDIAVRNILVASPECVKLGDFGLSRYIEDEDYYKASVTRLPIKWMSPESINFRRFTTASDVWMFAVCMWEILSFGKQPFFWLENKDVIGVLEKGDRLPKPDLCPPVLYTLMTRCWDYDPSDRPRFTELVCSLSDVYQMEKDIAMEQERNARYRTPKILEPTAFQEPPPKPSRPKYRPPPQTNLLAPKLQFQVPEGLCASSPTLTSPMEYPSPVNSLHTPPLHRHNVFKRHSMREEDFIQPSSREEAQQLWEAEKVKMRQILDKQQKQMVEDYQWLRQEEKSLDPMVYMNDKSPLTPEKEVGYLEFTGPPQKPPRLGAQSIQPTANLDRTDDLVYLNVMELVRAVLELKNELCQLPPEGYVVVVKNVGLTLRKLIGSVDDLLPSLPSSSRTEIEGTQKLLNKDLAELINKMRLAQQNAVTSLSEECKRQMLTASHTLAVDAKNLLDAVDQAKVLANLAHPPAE

Row | difference in %Control versus compound Ib at 1 µM (EPHB3; @1000nM) [%] | remaining binding at 1 µM (EPHB3; @1000nM, read-out: %Control) [%] | remaining binding at 1 µM (EPHB3; read-out: %Control @1000nM) [%] | difference in %Control versus compound Ib at 1 µM (FLT3(D835Y); @1000nM) [%] | remaining binding at 1 µM (FLT3(D835Y); @1000nM, read-out: %Control) [%] | remaining binding at 1 µM (FLT3(D835Y); read-out: %Control @1000nM) [%] | difference in % of control versus compound Ib at 1 µM (EGFR(L861Q); @1000nM) [%] | remaining binding at 1 µM (EGFR(L861Q); @1000nM, read-out: %Control) [%] | remaining binding at 1 µM (EGFR(L861Q); read-out: %Control @1000nM) [%] | difference in % of control versus compound Ib at 1 µM ([1]; @1000nM) [%] | remaining binding at 1 µM ([1]; @1000nM, read-out: %Control) [%] | remaining binding at 1 µM ([1]; read-out: %Control @1000nM) [%] | pIC50 (ITK, full length) | remaining binding at 1 µM (PYK2; @1000nM, read-out: %Control) [%] | remaining binding at 1 µM (PYK2; read-out: %Control @1000nM) [%] | difference in %Control vs compound Ib at 1 µM (FGFR2; @1000nM) [%] | remaining binding at 1 µM (FGFR2; @1000nM, read-out: %Control) [%] | remaining binding at 1 µM (FGFR2; read-out: %Control @1000nM) [%] | Compound
1 | -20 | 78 | 78 | 50 | 99 | 99 | 81.2 | 82 | 82 | -9 | 84 | 84 |  | 81 | 81 | 41 | 80 | 80 | CCOC(=O)c1cnc(S(C)(=O)=O)nc1N1CCC[C@@H](n2nc(-c3ccc(Oc4ccccc4)cc3)c3c(N)ncnc32)C1 [Compound 8c, Ethyl (R)-4-(3-(4-Amino-3-(4-phenoxyphenyl)-1H-pyrazolo[3,4-d]pyrimidin-1-yl)piperidin-1-yl)-2-(methylsulfonyl)pyrimidine-5-carboxylate]
2 | -1 | 97 | 97 | 18 | 67 | 67 | 56.2 | 57 | 57 | -17 | 76 | 76 | < 6.00 | 85 | 85 | 47 | 86 | 86 | COC(=O)c1cnc(S(C)(=O)=O)nc1N1CCCC(n2nc(-c3ccc(Oc4ccccc4)cc3)c3c(N)ncnc32)C1 (stereo not shown) [Compound 8b, Methyl 4-(3-(4-Amino-3-(4-phenoxyphenyl)-1H-pyrazolo[3,4-d]pyrimidin-1-yl)piperidin-1-yl)-2-(methylsulfonyl)pyrimidine-5-carboxylate]

Second part, the molecule before the results:

Row | Compound | difference in %Control versus compound Ib at 1 µM (EPHB3; @1000nM) [%] | remaining binding at 1 µM (EPHB3; @1000nM, read-out: %Control) [%] | remaining binding at 1 µM (EPHB3; read-out: %Control @1000nM) [%] | difference in %Control versus compound Ib at 1 µM (FLT3(D835Y); @1000nM) [%] | remaining binding at 1 µM (FLT3(D835Y); @1000nM, read-out: %Control) [%] | remaining binding at 1 µM (FLT3(D835Y); read-out: %Control @1000nM) [%] | difference in % of control versus compound Ib at 1 µM (EGFR(L861Q); @1000nM) [%] | remaining binding at 1 µM (EGFR(L861Q); @1000nM, read-out: %Control) [%] | remaining binding at 1 µM (EGFR(L861Q); read-out: %Control @1000nM) [%] | difference in % of control versus compound Ib at 1 µM ([1]; @1000nM) [%] | remaining binding at 1 µM ([1]; @1000nM, read-out: %Control) [%] | remaining binding at 1 µM ([1]; read-out: %Control @1000nM) [%] | pIC50 (ITK, full length) | remaining binding at 1 µM (PYK2; @1000nM, read-out: %Control) [%] | remaining binding at 1 µM (PYK2; read-out: %Control @1000nM) [%] | difference in %Control vs compound Ib at 1 µM (FGFR2; @1000nM) [%] | remaining binding at 1 µM (FGFR2; @1000nM, read-out: %Control) [%] | remaining binding at 1 µM (FGFR2; read-out: %Control @1000nM) [%]
3 | CNC(=O)c1cnc(S(C)(=O)=O)nc1N1CCCC(n2nc(-c3ccc(Oc4ccccc4)cc3)c3c(N)ncnc32)C1 (stereo not shown) [Compound 8d, 4-(3-(4-Amino-3-(4-phenoxyphenyl)-1H-pyrazolo[3,4-d]pyrimidin-1-yl)piperidin-1-yl)-N-methyl-2-(methylsulfonyl)pyrimidine-5-carboxamide] | 2 | 100 | 100 | 10 | 59 | 59 | 28.2 | 29 | 29 | -16 | 77 | 77 | < 6.00 | 100 | 100 | 35 | 74 | 74
4 | C=CC(=O)N1CCC[C@@H](n2nc(-c3ccc(Oc4ccccc4)cc3)c3c(N)ncnc32)C1 [Compound 1g, Ibrutinib, reference compound] |  | 98 | 98 |  |  |  |  |  |  |  | 93 | 93 |  | 100 | 100 |  | 39 | 39
5 | Cc1cnc(S(C)(=O)=O)nc1N1CCCC(n2nc(-c3ccc(Oc4ccccc4)cc3)c3c(N)ncnc32)C1 (stereo not shown) [Compound 8a, 1-(1-(5-Methyl-2-(methylsulfonyl)pyrimidin-4-yl)piperidin-3-yl)-3-(4-phenoxyphenyl)-1H-pyrazolo[3,4-d]pyrimidin-4-amine] | 2 | 100 | 100 | -4 | 45 | 45 | 81.2 | 82 | 82 | -11 | 82 | 82 | < 6.00 | 92 | 92 | 46 | 85 | 85
